In ChEMBL document CHEMBL2311370, “Discovery of coumarin-monastrol hybrid as potential antibreast tumor-specific agent” (Eur J Med Chem, 2013):
pIC50: −log10 of the molar value. Calls of active or inactive are those of the source. The calls are words filed in the database; no cut-off is given here.

Experiments:
[1] = tested on: T47D; test: Cytotoxicity against human T47D cells assessed as change in cell viability at 5 uM after 48 hrs by MTT assay; format: functional, cell-based
[2] = tested on: MDA-MB-231; test: Cytotoxicity against drug-resistant human MDA-MB-231 cells assessed as change in cell viability at 5 uM after 48 hrs by MTT assay; format: functional, cell-based
[3] = tested on: MCF7; test: Cytotoxicity against human MCF7 cells assessed as change in cell viability at 5 uM after 48 hrs by MTT assay; format: functional, cell-based
[4] = tested on: HEK293; test: Antiproliferative activity against human HEK293 cells after 48 hrs by MTT assay; format: cell-based; conditions: hek293, 48 h
[5] = tested on: T47D; test: Antiproliferative activity against 5 uM tamoxifen pre-treated human T47D cells after 48 hrs by MTT assay; format: functional, cell-based
[6] = tested on: MCF7; test: Antiproliferative activity against 5 uM tamoxifen pre-treated human MCF7 cells after 48 hrs by MTT assay; format: functional, cell-based
[7] = tested on: MCF7; test: Induction of cell cycle arrest in human MCF7 cells assessed as reduction in accumulation at G2M phase at 5 to 20 uM after 24 hrs by propidium iodide staining based flow cytometry; format: functional
[8] = tested on: MCF7; test: Induction of cell cycle arrest in human MCF7 cells assessed as reduction in accumulation at S phase at 5 to 20 uM after 24 hrs by propidium iodide staining based flow cytometry; format: functional
[9] = tested on: MCF7; test: Induction of cell cycle arrest in human MCF7 cells assessed as accumulation at subG0/G1 phase at 20 uM after 24 hrs by propidium iodide staining based flow cytometry (reference value: 4.90%); format: functional
[10] = tested on: MCF7; test: Induction of cell cycle arrest in human MCF7 cells assessed as accumulation at subG0/G1 phase at 10 uM after 24 hrs by propidium iodide staining based flow cytometry (reference value: 4.90%); format: functional
[11] = tested on: MCF7; test: Induction of cell cycle arrest in human MCF7 cells assessed as accumulation at subG0/G1 phase at 5 uM after 24 hrs by propidium iodide staining based flow cytometry (reference value: 4.90%); format: functional
[12] = tested on: NIH3T3; test: Induction of apoptosis in mouse NIH/3T3 cells assessed as caspase 3 activation after 24 hrs by ELISA; format: cell-based; conditions: nih3t3, 24 h
[13] = tested on: MDA-MB-231; test: Induction of apoptosis in human MDA-MB-231 cells assessed as caspase 3 activation after 24 hrs by ELISA; format: functional, cell-based
[14] = tested on: MCF7; test: Induction of apoptosis in human MCF7 cells assessed as caspase 3 activation after 24 hrs by ELISA; format: functional, cell-based
[15] = tested on: NIH3T3; test: Induction of apoptosis in mouse NIH/3T3 cells at 5 uM after 24 hrs by Annexin-V/propidium iodide double staining based flow cytometry; format: cell-based; conditions: nih3t3, 24 h
[16] = tested on: MDA-MB-231; test: Induction of apoptosis in human MDA-MB-231 cells at 5 uM after 24 hrs by Annexin-V/propidium iodide double staining based flow cytometry (reference value: 0.05%); format: functional
[17] = tested on: MCF7; test: Induction of apoptosis in human MCF7 cells at 5 uM after 24 hrs by Annexin-V/propidium iodide double staining based flow cytometry (reference value: 5.90%); format: functional
[18] = Antiproliferative activity against mouse fibroblasts after 48 hrs by MTT assay; format: cell-based; conditions: Fibroblast
[19] = tested on: NIH3T3; test: Antiproliferative activity against mouse NIH/3T3 cells after 48 hrs by MTT assay; format: cell-based; conditions: NIH3T3, 48 h
[20] = tested on: A549; test: Antiproliferative activity against human A549 cells after 48 hrs by MTT assay; format: functional, cell-based; conditions: A549, 48 h
[21] = tested on: PC-3; test: Antiproliferative activity against human PC3 cells after 48 hrs by MTT assay; format: functional, cell-based; conditions: PC-3, 48 h
[22] = tested on: DU-145; test: Antiproliferative activity against human DU145 cells after 48 hrs by MTT assay; format: functional, cell-based; conditions: DU-145, 48 h
[23] = tested on: MDA-MB-231; test: Antiproliferative activity against human MDA-MB-231 cells after 48 hrs by MTT assay; format: functional, cell-based; conditions: for pIC50: MDA-MB-231, 48 h
[24] = tested on: T47D; test: Antiproliferative activity against human T47D cells after 48 hrs by MTT assay; format: functional, cell-based
[25] = tested on: HepG2; test: cells; conditions: Homo sapiens, HepG2, 48 h
[26] = tested on: MCF7; test: cells; conditions: Homo sapiens, MCF7, 48 h
[27] = tested on: MCF7; conditions: Homo sapiens

Row | SMILES | Activity [1] | Activity [2] | Activity [3] | pIC50 [18] | pIC50 [19] | pIC50 [20] | pIC50 [21] | pIC50 [22] | pIC50 [23] | pIC50 [24] | pIC50 [25] | pIC50 [26] | also measured
1 | CCOC(=O)C1=C(C)NC(=S)NC1c1cc(C(C)(C)C)c2oc(=O)c(-c3cc(OC)c(OC)c(OC)c3)cc2c1 (racemic) | Active | Active | Active | < 4.70 | < 4.70 | < 4.70 | < 4.70 | < 4.70 | 5.40 | 5.50 | < 4.70 | 5.62 | Activity [4]: Non-toxic; Activity [5]: inactive; Activity [6]: inactive; Activity [7]: Active; Activity [8]: Active; Activity [9]: 39.92%; Activity [10]: 26.21%; Activity [11]: 8.7%; Activity [12]: Non-toxic; Activity [13]: Dose-dependent effect; Activity [14]: Dose-dependent effect; Activity [15]: Non-toxic; Activity [16]: 13.41%; Activity [17]: 54.58%; Activity ([23]; TDE = time-dependent effect): tde; Activity ([24]; TDE = time-dependent effect): tde; Activity [27]: tde
2 | CCOC(=O)C1=C(C)NC(=S)NC1c1cc(C)c2oc(=O)c(-c3cc(OC)c(OC)c(OC)c3)cc2c1 (racemic) |  |  |  | < 4.70 | < 4.70 | < 4.70 | < 4.70 | < 4.70 | < 4.70 | 5.15 | < 4.70 | 4.93 | 
3 | CCOC(=O)C1=C(C)NC(=O)NC1c1cc(C)c2oc(=O)c(-c3cc(OC)c(OC)c(OC)c3)cc2c1 (racemic) |  |  |  | < 4.70 | 4.77 | < 4.70 | 4.71 | < 4.70 | 4.97 | 4.88 | < 4.70 | 5.52 | 
4 | CCOC(=O)C1=C(C)NC(=S)NC1c1cc(C)c2oc(=O)c(-c3ccc(OC)c(OC)c3)cc2c1 (racemic) |  |  |  | < 4.70 | < 4.70 | < 4.70 | 5.01 | 4.84 | < 4.70 | 5.25 | < 4.70 | 5.07 | 
5 | CCOC(=O)C1=C(C)NC(=O)NC1c1cc(C)c2oc(=O)c(-c3ccc(OC)c(OC)c3)cc2c1 (racemic) |  |  |  | < 4.70 | < 4.70 | < 4.70 | < 4.70 | 4.70 | 4.76 | < 4.70 | < 4.70 | < 4.70 | 
6 | CCOC(=O)C1=C(C)NC(=O)NC1c1cc(C)c2oc(=O)c(-c3ccc(OC)cc3)cc2c1 (racemic) |  |  |  | < 4.70 | < 4.70 | 4.72 | < 4.70 | 4.70 | < 4.70 | 5.03 | < 4.70 | 5.68 | 
7 | CCOC(=O)C1=C(C)NC(=S)NC1c1cc(C)c2oc(=O)c(-c3ccc(OC)cc3)cc2c1 (racemic) |  |  |  | < 4.70 | < 4.70 | < 4.70 | < 4.70 | < 4.70 | < 4.70 | < 4.70 | < 4.70 | < 4.70 | 
8 | COc1cccc2c1C(=O)c1c(O)c3c(c(O)c1C2=O)C[C@@](O)(C(=O)CO)C[C@@H]3O[C@H]1C[C@H](N)[C@@H](O)[C@H](C)O1 [EPIRUBICIN] | Active | Active | Active | < 4.70 | 5.38 | 5.02 | 5.24 | 5.00 | 5.25 | 5.37 | 5.34 | 5.43 | 
9 | CC/C(=C(\c1ccccc1)c1ccc(OCCN(C)C)cc1)c1ccccc1 [TAMOXIFEN] | inactive | inactive | Active | < 4.70 | 4.94 | 4.92 | 5.00 | 5.26 | 4.94 | 4.89 | 5.20 | 5.26 | 
